Experiment [1] deals with Proteasome Macropain subunit (Homo sapiens) (UniProt P49721). Kind of experiment: Inhibition of 26S proteasome beta 2 in human HEK293 cell lysate assessed as residual activity at 0.03 uM after 1 hr. The format is cell-free.
Experiment [2] concerns the target Proteasome subunit beta type-5 (Homo sapiens) (UniProt P28074). The experiment is described as follows: Inhibition of 26S proteasome beta 5 in human HEK293 cell lysate assessed as residual activity at 3 uM after 1 hr.
Experiment [3] addresses T1, Proteasome component C5 (Homo sapiens) (UniProt P20618).
T1 sequence (whole entry): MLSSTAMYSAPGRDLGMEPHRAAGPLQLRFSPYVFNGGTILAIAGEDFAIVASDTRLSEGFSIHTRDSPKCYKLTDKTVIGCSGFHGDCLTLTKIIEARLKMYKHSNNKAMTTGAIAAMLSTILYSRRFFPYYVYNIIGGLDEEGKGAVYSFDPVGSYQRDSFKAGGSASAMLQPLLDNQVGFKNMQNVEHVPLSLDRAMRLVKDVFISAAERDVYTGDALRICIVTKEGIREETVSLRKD
The experiment is described as follows: Inhibition of 26S proteasome beta 1 in human HEK293 cell lysate assessed as residual activity at […] after 1 hr. Type of experiment: cell-free.

Experiment [4] concerns the target Proteasome Macropain subunit (Homo sapiens) (UniProt P49721). Kind of experiment: Inhibition of 26S proteasome beta 2 in human HEK293 cell lysate assessed as residual activity at 0.11 uM after 1 hr. Type of experiment: cell-free.
In experiment [5] the target is T1, Proteasome component C5 (Homo sapiens). Kind of experiment: Inhibition of 26S proteasome beta 1 in human HEK293 cell lysate assessed as residual activity at 3 uM after 1 hr. The format is cell-free.
In experiment [6] the target is Proteasome subunit beta type-5 (Homo sapiens) (UniProt P28074). The experiment is described as follows: Inhibition of 26S proteasome beta 5 in human HEK293 cell lysate assessed as residual activity at 1 uM after 1 hr.
Sequence of Proteasome subunit beta type-5 (Homo sapiens) (P28074 whole entry, looked up): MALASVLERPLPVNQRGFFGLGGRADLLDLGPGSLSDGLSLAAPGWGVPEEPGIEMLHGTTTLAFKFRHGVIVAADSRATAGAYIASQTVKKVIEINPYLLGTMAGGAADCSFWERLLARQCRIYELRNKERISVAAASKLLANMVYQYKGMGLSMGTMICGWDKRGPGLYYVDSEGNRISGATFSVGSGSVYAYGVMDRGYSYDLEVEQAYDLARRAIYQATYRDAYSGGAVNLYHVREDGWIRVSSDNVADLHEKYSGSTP
The target in experiment [7] is T1, Proteasome component C5 (Homo sapiens). Kind of experiment: Inhibition of 26S proteasome beta 1 in human HEK293 cell lysate assessed as residual activity at 0.11 uM after 1 hr. The format is cell-free.
For experiment [8] the target is unchanged. Kind of experiment: Inhibition of 26S proteasome beta 1 in human HEK293 cell lysate assessed as residual activity at 1 uM after 1 hr. Type of experiment: cell-free.
Experiment [9] concerns the target Proteasome Macropain subunit (Homo sapiens) (UniProt P49721). Kind of experiment: Inhibition of 26S proteasome beta 2 in human HEK293 cell lysate assessed as residual activity at […] after 1 hr. Type of experiment: cell-free.
Experiment [10] has as its target T1, Proteasome component C5 (Homo sapiens). The experiment is described as follows: Inhibition of 26S proteasome beta 1 in human HEK293 cell lysate assessed as residual activity at 0.03 uM after 1 hr. The format is cell-free.
Experiment [11] concerns the target Proteasome Macropain subunit (Homo sapiens) (UniProt P49721). Kind of experiment: Inhibition of 26S proteasome beta 2 in human HEK293 cell lysate assessed as residual activity at 3 uM after 1 hr. Type of experiment: cell-free.
Experiment [12] has the same target. Kind of experiment: Inhibition of 26S proteasome beta 2 in human HEK293 cell lysate assessed as residual activity at 1 uM after 1 hr. The format is cell-free.
Experiment [13] deals with T1, Proteasome component C5 (Homo sapiens). Kind of experiment: Inhibition of 26S proteasome beta 1 in human HEK293 cell lysate assessed as residual activity at 9 uM after 1 hr. Type of experiment: cell-free.
Experiment [14] addresses Proteasome subunit beta type-5 (Homo sapiens) (UniProt P28074). Kind of experiment: Inhibition of 26S proteasome beta 5 in human HEK293 cell lysate assessed as residual activity at […] after 1 hr.
The target is the same in experiment [15]. The experiment is described as follows: Inhibition of 26S proteasome beta 5 in human HEK293 cell lysate assessed as residual activity at 0.11 uM after 1 hr.
For experiment [16], the target named is Proteasome Macropain subunit (Homo sapiens) (UniProt P49721). Kind of experiment: Inhibition of 26S proteasome beta 2 in human HEK293 cell lysate assessed as residual activity at 9 uM after 1 hr. Type of experiment: cell-free.
The target of experiment [17] is Proteasome subunit beta type-5 (Homo sapiens) (UniProt P28074). Kind of experiment: Inhibition of 26S proteasome beta 5 in human HEK293 cell lysate assessed as residual activity at 9 uM after 1 hr.
Experiment [18] shares this target. Kind of experiment: Inhibition of 26S proteasome beta 5 in human HEK293 cell lysate assessed as residual activity at 0.03 uM after 1 hr.

We go through one compound from ChEMBL document CHEMBL1157550, “Incorporation of fluorinated phenylalanine generates highly specific inhibitor of proteasome's chymotrypsin-like sites” (J Med Chem, 2010).

The structures appear in SMILES notation.

Sequence of Proteasome Macropain subunit (Homo sapiens) (P49721 whole entry): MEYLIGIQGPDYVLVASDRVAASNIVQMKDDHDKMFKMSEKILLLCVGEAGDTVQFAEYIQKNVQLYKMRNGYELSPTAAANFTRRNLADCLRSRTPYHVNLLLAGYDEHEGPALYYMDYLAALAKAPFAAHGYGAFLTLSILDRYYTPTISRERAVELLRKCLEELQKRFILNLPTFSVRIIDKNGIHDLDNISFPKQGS

As for `CC1=CC(C)=[N+]2C1=C(CCCCc1cn([C@@H](Cc3ccccc3)C(=O)N[C@@H](Cc3ccccc3)C(=O)N[C@@H](Cc3c(F)c(F)c(F)c(F)c3F)C(=O)N[C@@H](CC(C)C)C(=O)[C@@]3(C)CO3)nn1)c1c(C)cc(C)n1[B-]2(F)F`, the Activity in experiment [1] stood at 117%; in experiment [2], 18%; in [3], 98.4%; in [4], 134%; in experiment [5], 120%; in experiment [6] it was 25.3%. Further, the Activity in [7] was 111%; in [8] it was 107%; in experiment [9], 106%; in experiment [10], 101%; in [11], 141%; in [12], 124%. Also, the Activity in experiment [13] came to 100%; in [14] it was 45.8%; in experiment [15], 76.5%; in experiment [16], 102%; in experiment [17], 8.3%; in [18], 89.7%.
